Test results from the supplement of paper PMC10949913.
Counter-ions that a name gives are not always drawn. ± gives the standard deviation of the averaged measurements.

Assays:
CU-ACC1 = assay: ExcessHSA synergy score with TAK-243; higher = less synergy (negative = synergistic); settings: combined with: TAK-243 (MLN-7243) matrix, 9-point 1:2 dilution
Method: (§1)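 Each drug was tested at 9 points with 1:2 dilution; viability was read by CellTiter-Glo as in the single-agent screen. Synergy is scored as ExcessHSA (sum of excess over highest single agent; negative = synergy) and the Beta interaction parameter (<1 synergy).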

NCI-H295R = assay: as above; settings: combined with: TAK-243 (MLN-7243) matrix, 9-point 1:2 dilution
Method: as §1

SMILES | ExcessHSA synergy score with TAK-243 (CU-ACC1) | ExcessHSA synergy score with TAK-243 (NCI-H295R)
CC(C)n1c(=O)n(C)c2cnc3cc(F)c(-c4ccc(OCCCN5CCCCC5)nc4)cc3c21 [AZD-1390] | 697 | 286
O=C(c1cc(-c2cc3c(cc2C(=O)N2Cc4ccccc4CC2CN2CCOCC2)OCO3)n2c1CCCC2)N(c1ccccc1)c1ccc(O)cc1 (stereo not given) | -937 | -903
O=C(N[C@@H](Cc1coc2ccccc12)B(O)O)[C@@H]1C[C@H]2CC[C@@H]1O2 [LMP7-IN-1] | -335 | -55.7
CCOC(=O)c1ccc(C#Cc2ccc3c(c2)C(C)(C)CCS3)nc1 [Tazarotene] | 230 | 136
CNCc1ccc(-c2cc(-c3nc(-c4ccc(S(=O)(=O)C(C)C)cc4)cnc3N)on2)cc1 [Berzosertib] | -219 | 144
NCCCC[C@H](NC(=O)[C@@H](NC(=O)[C@H](Cc1c[nH]c2ccccc12)NC(=O)[C@H](CCCCN)NC(=O)[C@H](CCCCN)NC(=O)[C@H](Cc1c[nH]c2ccccc12)NC(=O)[C@H](Cc1c[nH]c2ccccc12)NC(=O)[C@H](CCCCN)NC(=O)[C@@H](N)CCCCN)C(c1ccccc1)c1ccccc1)C(N)=O [Oncopore] | 401 | 391
CCc1cc(C(N)=O)ccc1-n1nc(C(C)C)c2c(-n3cnc(-c4cnn(C)c4)c3)ccnc21 [Pimitespib] | 959 | 586
Nc1c(C(=O)c2ccccc2)sc2[nH]c(=O)c(C(=O)O)cc12 | -23.4 | -51.1
CC1(C)CCC(CN2CCN(c3ccc(C(=O)NS(=O)(=O)c4ccc(NCC5CCOCC5)c([N+](=O)[O-])c4)c(Oc4cnc5[nH]ccc5c4)c3)CC2)=C(c2ccc(Cl)cc2)C1 [Venetoclax (ABT-199)] | -249 | -424
CNc1nc(NC2CCN(Cc3ccc4c(cc(C#N)n4C[C@H](C)N4CCN(S(C)(=O)=O)CC4)c3C)CC2)c2cc(CC(F)(F)F)sc2n1 [Ziftomenib (KO-539)] | -443 | -888
Cc1cnc(CNC(=O)c2c(=O)c3ccc(N4CCCN(C)CC4)nc3n3c2sc2ccccc23)cn1 [CX-5461] | 210 | 895
Nc1nc(NC2CC2)cc(-c2cccc(Cl)c2Cl)n1 [TH588] | -251 | -172
CO[C@H]1C[C@@H]2CC[C@@H](C)[C@@](O)(O2)C(=O)C(=O)N2CCCC[C@H]2C(=O)O[C@H]([C@H](C)C[C@@H]2CC[C@@H](OCCO)[C@H](OC)C2)CC(=O)[C@H](C)/C=C(\C)[C@@H](O)[C@@H](OC)C(=O)[C@H](C)C[C@H](C)/C=C/C=C/C=C/1C [Everolimus] | -885 | -1040
CSC[C@H]1CN(Cc2c[nH]c3c(N)ncnc23)C[C@@H]1O [MT-DADMe-ImmA] | -323 | 422
CC[C@@H]1C(=O)N(C)c2cnc(Nc3ccc(C(=O)N[C@H]4CC[C@H](N5CCN(CC6CC6)CC5)CC4)cc3OC)nc2N1C(C)C [Volasertib] | -422 | -938
Cc1nc2cccc(N)c2c(=O)n1C1CCC(=O)NC1=O (stereo not given) [Avadomide] | -213 | 1030
CNC(=O)Nc1ccc2c(c1)CC[C@@]21OC(=O)N(CC(=O)N(Cc2ccc(F)cc2)[C@@H](C)C(F)(F)F)C1=O [A-485] | 305 | 334
Cc1ccc(NC(=O)NCc2ccc3c(c2)CN(C2CCC(=O)NC2=O)C3=O)cc1Cl (stereo not given) [CC-885] | 356 | 370
C#CCC(Cc1cnc2nc(N)nc(N)c2n1)c1ccc(C(=O)N[C@@H](CCC(=O)O)C(=O)O)cc1 (stereo not given in full) [Pralatrexate] | 137 | -57.8
CO[C@@]12[C@H](COC(N)=O)C3=C(C(=O)C(C)=C(N)C3=O)N1C[C@@H]1N[C@@H]12 [Mitomycin C] | 133 | 200
CNC(=O)c1cccc(-c2ccc3c(N4CCOC[C@@H]4C)nc(N4CCOC[C@@H]4C)nc3n2)c1 [Vistusertib] | -211 ± 410 | -549 ± 350
CC1(C)CCC(c2ccc(Cl)cc2)=C(CN2CCN(c3ccc(C(=O)NS(=O)(=O)c4ccc(N[C@H](CCN5CCOCC5)CSc5ccccc5)c(S(=O)(=O)C(F)(F)F)c4)cc3)CC2)C1 [Navitoclax] | -563 | -505
CC(C)c1cc(-c2n[nH]c(=O)n2-c2ccc3c(ccn3C)c2)c(O)cc1O [Ganetespib (STA-9090)] | 400 | -59.8
C[C@H]1N=C(N(C)C)N=C(N)N1 [Imeglimin] | -159 | 50.3
CN1CCN(c2ccc(Nc3ncc4cc5n(c4n3)C3(CCCCC3)CNC5=O)nc2)CC1 [Trilaciclib (hydrochloride)] | -171 | 125

SMILES | ExcessHSA synergy score with TAK-243 (CU-ACC1) | ExcessHSA synergy score with TAK-243 (NCI-H295R)
O=C1CC[C@H](N2Cc3c(OCc4ccc(CN5CCOCC5)cc4)cccc3C2=O)C(=O)N1 [Iberdomide] | 393 | 1110
CN(Cc1cnc2nc(N)nc(N)c2n1)c1ccc(C(=O)N[C@@H](CCC(=O)O)C(=O)O)cc1 [Methotrexate] | 544 | 591
CO[C@H]1/C=C/C[C@H](C)[C@@H](C)S(=O)(=O)NC(=O)c2ccc3c(c2)N(C[C@@H]2CC[C@H]21)C[C@@]1(CCCc2cc(Cl)ccc21)CO3 [AMG-176] | -10.7 | -202
O=C(O)C1(C(=O)O)CCC1.[NH2-].[NH2-].[Pt+2] [Carboplatin] | -188 | -21.5
O=C(NCc1ccc(S(=O)(=O)c2cccc(C(F)(F)F)c2)cc1)c1cnc2[nH]ncc2c1 [GNE-618] | -406 | -555
O=C(Nc1ccnc(C(F)(F)F)c1)c1cnn(-c2cccc3c(=O)[nH]ccc23)c1C(F)(F)F | -300 | -544
COc1ccc(C(=O)N2CCN(c3ccc4c(c3)CCC(=O)N4)CC2)cc1OC [Vesnarinone] | 628 | 706
CCN(C(=O)c1cc(F)ccc1Oc1cncnc1N1CC2(CCN(C[C@H]3CC[C@H](NS(=O)(=O)CC)CC3)CC2)C1)C(C)C [SNDX-5613] | -82.8 | 50
CC(C)Nc1cc(-c2c[nH]c(C(=O)N[C@H](CO)c3cccc(Cl)c3)c2)c(Cl)cn1 [Ulixertinib] | -564 | -674
C[C@@H]1C[C@H]2[C@@H]3CCC4=CC(=O)C=C[C@]4(C)[C@@]3(F)[C@@H](O)C[C@]2(C)[C@@]1(O)C(=O)CO [Dexamethasone] | 420 | 743
NS(=O)(=O)OC[C@@H]1C[C@@H](n2ccc3c(N[C@H]4CCc5ccccc54)ncnc32)C[C@@H]1O [MLN-4924] | -111 | -344
CN1C(=O)[C@@H](NC(=O)c2n[nH]c(Cc3ccccc3)n2)COc2ccccc21 | 359 | 714
CC(C)[C@@H](CS(=O)(=O)C(C)C)N1C(=O)[C@@](C)(CC(=O)O)C[C@H](c2cccc(Cl)c2)[C@H]1c1ccc(Cl)cc1 [AMG 232] | -130 | 236
CNC(=O)c1ccc(Nc2ncc(C(F)(F)F)c(NCc3nccnc3N(C)S(C)(=O)=O)n2)cc1 [Defactinib] | 223 | 245
Cc1cc(F)c(C(=O)Nc2cccc(-c3nncn3C(C)C)n2)cc1-n1cnc(C2CC2)c1 [Selonsertib] | 496 | 231
N[C@H]1CC[C@H](N[C@@H]2C[C@H]2c2ccccc2)CC1 [ORY-1001] | -384 | -493
C=CCNC1=C2C[C@@H](C)C[C@H](OC)[C@H](O)[C@@H](C)/C=C(\C)[C@H](OC(N)=O)[C@@H](OC)/C=C\C=C(/C)C(=O)NC(=CC1=O)C2=O [17-AAG] | 421 | -251
O=C(C[C@@H](C(F)F)n1ccc(F)n1)N1CCC(O)(Cn2cnc3c(cnn3-c3ccc(F)cc3)c2=O)CC1 [FT671] | -97.6 | 431
Cc1cc(C(=O)CN2CCCCC2)c(C)n1-c1ccc(Cl)cc1 [IU1-47] | -58.7 | 125
CC(C)NC[C@@H](C(=O)N1CCN(c2ncnc3c2[C@H](C)C[C@H]3O)CC1)c1ccc(Cl)cc1 [Ipatasertib] | 85.6 | -60.3
Cc1nc(=O)c2cc(CN(C)c3ccc(C(=O)N[C@@H](CCC(=O)O)C(=O)O)s3)ccc2[nH]1 [Raltitrexed] | -398 | -54.1
CC(=O)N1CCC(Nc2cc(C(=O)NC[C@H](O)CN3CCc4ccccc4C3)ncn2)CC1 | 517 | 649
Cc1[nH]c2ccc(F)cc2c1-c1nc2c3cccnc3c3ncccc3c2[nH]1 [APTO-253] | 410 | 586
C[C@@H]1CN(Cc2ccc(F)cc2)[C@@H](C)CN1C(=O)c1cc2c(C(=O)C(=O)N(C)C)cn(C)c2cc1Cl [Talmapimod] | 218 | 657
Cc1nc(-c2nc(-c3ccc(OC(F)(F)F)cc3)no2)nn1Cc1cccc(N2CCC(S(C)(=O)=O)CC2)c1 | 422 | 691
